# From PMC10376326, “Novel Acylselenourea Derivatives: Dual Molecules with Anticancer and Radical Scavenging Activity” (Antioxidants, 2023)
# Tests used:
# [1] = test system: DU-145 (prostate) cancer cell line; test: MTT cell viability assay, DU-145; assay type: cell-based, human; conditions: Homo sapiens, DU-145, 48 h; for activity at 10 µM: read-out: Cell growth %, DU-145, 10 µM, 48 h, MTT; for activity at 50 µM: read-out: Cell growth %, DU-145, 50 µM, 48 h, MTT
# Summary of the method: (§1)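 MDA-MB-231, HTB-54 and DU-145 grown in RPMI 1640, HT-29 in McCoy's 5A (10% FBS). Output is % cell growth; IC50 determined; ≥3 experiments in quadruplicate.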
# [2] = test system: MDA-MB-231 (breast) cancer cell line; test: MTT cell viability assay, MDA-MB-231; assay type: cell-based, human; conditions: Homo sapiens, MDA-MB-231, 48 h; for activity at 10 µM: read-out: Cell growth %, MDA-MB-231, 10 µM, 48 h, MTT; for activity at 50 µM: read-out: Cell growth %, MDA-MB-231, 50 µM, 48 h, MTT
# Summary of the method: as §1
# [3] = test system: HT-29 (colon) cancer cell line; test: MTT cell viability assay, HT-29; assay type: cell-based; conditions: Homo sapiens, HT-29, 48 h, read-out: Cell growth %; for activity at 10 µM: HT-29, 10 µM; for activity at 50 µM: HT-29, 50 µM
# Summary of the method: as §1
# [4] = test system: HTB-54 (lung) cancer cell line; test: MTT cell viability assay, HTB-54; assay type: cell-based, human; conditions: for activity at 10 µM / activity at 50 µM / IC50: Homo sapiens, HTB-54, 48 h; for activity at 10 µM: read-out: Cell growth %, HTB-54, 10 µM, 48 h, MTT; for activity at 50 µM: read-out: Cell growth %, HTB-54, 50 µM, 48 h, MTT; for IC50: read-out: IC50 HTB-54, Lung, MTT, 48 h; for SI: IC50 (BEAS-2B)/IC50 (HTB-54)
# [5] = DPPH radical scavenging assay; assay type: biochemical
# Summary of the method: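 Acylselenoureas at 0.003 and 0.03 mg/mL (final dilutions from DMSO stock, via methanol) mixed with DPPH• prepared at 0.04 mg/mL in methanol. Absorbance decrease at 517 nm followed 0–120 min; % scavenging calculated relative to negative control, triplicates.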
# [6] = test system: MDA-MB-231, HT-29, HTB-54 and DU-145 cancer cell lines; test: MTT cell viability assay, statements over the panel of cancer cell lines; assay type: cell-based, human; conditions: in at least three of the four cancer cell lines tested
# Method: (§2) Cell lines were purchased from the American Type Culture Collection (ATCC). Cell lines MDA-MB-231, HTB-54, DU-145, and BEAS-2B were cultured in RPMI 1640 medium (Gibco, Thermo Fisher Scientific, Gaithersburg, MD, USA) supplemented with 10% fetal bovine serum (FBS; Gibco), 100 units/mL penicillin, and […] streptomycin (Gibco). HT-29 cell line was grown in McCoy’s 5A (Gibco), 10% FBS, 100 units/mL penicillin, and 100 μg/mL streptomycin. Cells were maintained at 37 °C and 5% CO2. The culture medium was changed every three days.
# (§3) The cell viability of each compound was measured by MTT colorimetric assay. Each compound was dissolved in DMSO at a concentration of 0.01 M. Each compound was tested at two different concentrations (10 and 50 µM) in MDA-MB-231 (breast), HTB-54 (lung), DU-145 (prostate), and HT-29 (colon) human cancer cell lines. Serial dilutions were prepared with supplemented culture medium. […] IC50 and selectivity indexes (SI) were determined.
# (§4) Briefly, 1 × 10^4 tumor cells per well were grown in 96-well plates for 24 h. Then, these cells were incubated for 48 h with either DMSO (control) or a different concentration of each of the tested compounds. The cell viability was determined by adding 20 μL of MTT two hours and a half before the termination point. After this time, the culture medium was removed. The resulting formazan crystals were dissolved in 50 μL of DMSO, and the absorbance was measured at 570 nm. Results are expressed as % cell growth. The data were obtained from at least three independent experiments performed in quadruplicate.
# [7] = test system: non-malignant BEAS-2B lung cell line; test: MTT cell viability assay, BEAS-2B; assay type: cell-based; conditions: Homo sapiens, normal lung, 48 h
# Method: as §2, §3, §4
# DU-145 cells = test: Protective effects against H2O2-induced oxidative stress in DU-145 cells (MTT); assay type: cell-based, human; conditions: increase-fold of cell survival
# Method: Cells were treated with the selected compounds and then oxidative damage to DU-145 cells was induced using different concentrations of H2O2 (200, 250 and 300 µM), and cell viability was assessed by the MTT method. Briefly, 2.5 × 10^4 DU-145 cells per well were added in 96-well plates. After 24 h of incubation, DMSO, 1.I, 2.I, 5.I, 7.II, 10.II, and ascorbic acid were added to each well at two different concentrations (0.0015 mg/mL and 0.0003 mg/mL) and incubated for 1 h. After that, H2O2 was added at the concentrations of 200, 250, and 300 µM, and the cells were incubated for 12 h to induce cell damage. MTT assay was used to measure cell viability. For each treatment, the mean cell viability was calculated from three independent experiments. The DMSO-treated controls were assigned with a cell viability value of 100% (Vcontrol). The results are expressed as a cell growth inhibition % caused by H2O2 and the increased fold of cell survival, as follows: • Cells without compounds, only treated with H2O2: (2) % Cell growth inhibition=Acontrol - Asample/Acontrol × 100
# • Cells treated with compounds and H2O2:
# (3) % Cell growth inhibition=Asample (compound) - Asample (compound+H2O2)/Acontrol × 100
# (4) Increase-fold of cell survival=% cell growth inhibition (H2O2)/% cell growth inhibition (compound+ H2O2)
# The standard error of the mean (SEM) was calculated in at least three independent experiments performed in quadruplicates.
# [8] = compound 0.0003 mg/mL, 200 µM H2O2, DU-145
# [9] = compound 0.0003 mg/mL, 250 µM H2O2, DU-145
# [10] = compound 0.0003 mg/mL, 300 µM H2O2, DU-145
# [11] = compound 0.0015 mg/mL, 200 µM H2O2, DU-145
# [12] = compound 0.0015 mg/mL, 250 µM H2O2, DU-145
# [13] = compound 0.0015 mg/mL, 300 µM H2O2, DU-145
SMILES,activity at 10 µM [1],activity at 50 µM [1],activity at 10 µM [2],activity at 50 µM [2],activity at 10 µM [3],activity at 50 µM [3],activity at 10 µM [4],activity at 50 µM [4],"inhibition ([5]; 0.003 mg/mL, 0 min)","inhibition ([5]; 0.003 mg/mL, 5 min)","inhibition ([5]; 0.003 mg/mL, 15 min)","inhibition ([5]; 0.003 mg/mL, 30 min)","inhibition ([5]; 0.003 mg/mL, 60 min)","inhibition ([5]; 0.003 mg/mL, 90 min)","inhibition ([5]; 0.003 mg/mL, 120 min)","inhibition ([5]; 0.03 mg/mL, 0 min)","inhibition ([5]; 0.03 mg/mL, 5 min)","inhibition ([5]; 0.03 mg/mL, 15 min)","inhibition ([5]; 0.03 mg/mL, 30 min)","inhibition ([5]; 0.03 mg/mL, 60 min)",also measured
"CCCNC(=[Se])NC(=O)/C=C/c1ccccc1 [Compound 6.I, N-(propylcarbamoselenoyl)cinnamamide]",19.5 ± 2%,12.6 ± 1%,88.4 ± 16.3%,23.5 ± 12.9%,60.4 ± 9.7%,25.1 ± 5%,84.6 ± 5.9%,36.2 ± 5.7%,1.5 ± 0.5%,2 ± 0.8%,2.5 ± 0.8%,3.1 ± 0.6%,4.4 ± 0.6%,5.6 ± 0.7%,6.6 ± 0.8%,2.3 ± 1%,10.1 ± 1.1%,15.4 ± 1.3%,21.8 ± 1.1%,35.1 ± 1.2%,"melting point: 125 to 126 °C; inhibition ([5]; 0.03 mg/mL, 90 min): 50.2 ± 0.8%; inhibition ([5]; 0.03 mg/mL, 120 min): 66.4 ± 0.2%"
"CCCNC(=[Se])NC(=O)c1cccs1 [Compound 2.I, N-(propylcarbamoselenoyl)thiophene-2-carboxamide]",54.5 ± 8.4%,50.2 ± 2%,32.8 ± 7.2%,15.2 ± 8.8%,48.4 ± 13.8%,32.7 ± 6.9%,92.3 ± 6.2%,71.8 ± 4.4%,0%,4.9 ± 3.6%,8.2 ± 3.3%,11.4 ± 2.7%,16 ± 3.4%,17 ± 2.2%,17.8 ± 2.2%,2.5 ± 0.6%,12.8 ± 1.8%,36.2 ± 0.1%,59 ± 3%,90.7 ± 5.7%,"cell growth [6]: below 55%; IC50 [7]: 5.3 ± 0.6 µM; Increase-fold (DU-145 cells; [8]): 0.8 ± 0.2; Increase-fold (DU-145 cells; [9]): 0.9 ± 0.2; Increase-fold (DU-145 cells; [10]): 1.0 ± 0.3; Increase-fold (DU-145 cells; [11]): 2.9 ± 1.5; Increase-fold (DU-145 cells; [12]): 3.1 ± 1.3; Increase-fold (DU-145 cells; [13]): 2.9 ± 1.2; IC50 [4]: 8.6 ± 1.1 µM; SI [4]: 0.6; time to reach the highest DPPH inhibition ([5]; 0.03 mg/mL): 60 min; inhibition ([5]; 0.03 mg/mL, 90 min): 95.5 ± 0.2%; inhibition ([5]; 0.03 mg/mL, 120 min): 95.5 ± 0.3%"
"C=CCNC(=[Se])NC(=O)c1cccnc1 [Compound 7.II, N-(allylcarbamoselenoyl)nicotinamide]",50.6 ± 2.4%,8.95 ± 4.9%,33.9 ± 6.7%,10.5 ± 7%,110 ± 19.4%,19 ± 3.6%,21.4 ± 8.2%,10.2 ± 5.8%,3.6 ± 2.3%,12 ± 2.2%,16.8 ± 1.3%,18.9 ± 1.3%,20.3 ± 1.2%,20.7 ± 1.3%,20.7 ± 1.3%,56.3 ± 6.2%,90 ± 1.3%,95.7 ± 0.4%,–,–,"cell growth [6]: below 55%; IC50 [7]: 6.3 ± 1.5 µM; Increase-fold (DU-145 cells; [8]): 2.3 ± 1.2; Increase-fold (DU-145 cells; [9]): 1.6 ± 0.2; Increase-fold (DU-145 cells; [10]): 1.8 ± 0.4; Increase-fold (DU-145 cells; [11]): 1.5 ± 0.2; Increase-fold (DU-145 cells; [12]): 1.2 ± 0.3; Increase-fold (DU-145 cells; [13]): 1.4 ± 0.3; IC50 [4]: 12 ± 2.7 µM; SI [4]: 0.5; time to reach the highest DPPH inhibition ([5]; 0.03 mg/mL): 5 min; DPPH Inhibitory% ([5]; acylselenourea analogs, 0.03 mg/mL, 90 min): 96.2 ± 0.2%"
"C=CCNC(=[Se])NC(=O)c1cccc(C(=O)NC(=[Se])NCC=C)c1 [Compound 10.II, N^1,N^3-bis(allylcarbamoselenoyl)isophthalamide]",18.1 ± 2.7%,18.8 ± 3.1%,24.8 ± 6.1%,21 ± 9.4%,47.8 ± 8.7%,46.4 ± 4.8%,52.6 ± 10.5%,43.5 ± 17.6%,0.9 ± 1.8%,6.7 ± 1.7%,11.5 ± 1.5%,14.7 ± 1.2%,17.7 ± 1.1%,19 ± 0.9%,19.7 ± 0.9%,31.6 ± 4.1%,69.1 ± 0.1%,86.3 ± 0.9%,94.4 ± 0.7%,96.1 ± 0.1%,"cell growth [6]: below 55%; IC50 [7]: 29.9 ± 5 µM; Increase-fold (DU-145 cells; [8]): 0.8 ± 0.4; Increase-fold (DU-145 cells; [9]): 1.0 ± 0.3; Increase-fold (DU-145 cells; [10]): 1.0 ± 0.2; Increase-fold (DU-145 cells; [11]): 1.0 ± 0.6; Increase-fold (DU-145 cells; [12]): 1.1 ± 0.2; Increase-fold (DU-145 cells; [13]): 1.1 ± 0.2; SI [4]: 0.7; time to reach the highest DPPH inhibition ([5]; 0.03 mg/mL): 60 min; inhibition ([5]; 0.03 mg/mL, 90 min): 96 ± 0.2%; inhibition ([5]; 0.03 mg/mL, 120 min): 96 ± 0.3%"
